Test results taken from patent US20230116972A1, “CD38 MODULATORS AND METHODS OF USE THEREOF” (Cytokinetics, Inc., priority 2021, published 2023).
Where two headings read alike, the source gives them in different places.

Columns and labels:
CYP1A2 = target: T1, CYP1A2 (Homo sapiens, UniProt P05177); assay: direct inhibition of CYP450 in human liver microsomes; type: in vitro ADME
T1 construct: from tissue; host or cells: human liver microsomes (pooled in the time-dependent assay)
T1 sequence (P05177 1-516): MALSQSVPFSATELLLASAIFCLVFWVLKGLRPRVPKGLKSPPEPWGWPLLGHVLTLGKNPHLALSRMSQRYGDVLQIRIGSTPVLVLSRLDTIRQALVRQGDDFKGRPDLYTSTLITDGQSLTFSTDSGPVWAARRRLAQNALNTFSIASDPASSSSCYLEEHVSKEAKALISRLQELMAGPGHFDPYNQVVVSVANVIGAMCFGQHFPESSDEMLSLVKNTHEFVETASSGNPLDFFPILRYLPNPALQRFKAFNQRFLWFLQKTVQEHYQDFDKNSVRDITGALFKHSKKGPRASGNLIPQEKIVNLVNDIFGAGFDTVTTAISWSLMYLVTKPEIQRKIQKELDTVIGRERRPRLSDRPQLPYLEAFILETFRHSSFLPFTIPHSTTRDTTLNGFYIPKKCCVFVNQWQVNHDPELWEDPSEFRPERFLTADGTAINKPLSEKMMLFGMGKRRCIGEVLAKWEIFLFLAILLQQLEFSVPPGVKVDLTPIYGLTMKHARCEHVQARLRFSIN
Description: (§1) Direct inhibition: […] A Perspective of the Pharmaceutical Research and Manufacturers of America”, Drug Metabolism and Disposition, 37 (7): 1355, 2009). For 3A4, the % activity was measured using both midazolam and testosterone as probes. Each compound at 3, 10, and 50 μM was incubated with HLM, NADPH and CYP isoenzyme specific probe substrates at 37° C. Inhibition of the probe substrate metabolism was quantified using LC/MS/MS. […] Known chemical inhibitors specific for the individual CYP isoenzymes were evaluated in parallel as positive controls and these compounds produced CYP inhibition consistent with published results (Walsky & Obach RS. “Validated assays for human cytochrome P450 activities”. Drug Metab Dispos. 32(6):647-60, 2004). Note that, in Tables 6 and 7, the “Compound No” corresponds to the compound numbers in Table 1.

CYP2C9 = target: T2, CYP2C9 (Homo sapiens, UniProt P11712); assay: as above; type: in vitro ADME; settings: for activity at 3 µM / activity at 10 µM / activity at 50 µM: % of non-inhibited control, read-out: CYP2C9 T0 % activity; for IC50: estimated from 3, 10, 50 uM, read-out: CYP2C9 T0 estimated IC50
T2 construct: from tissue; host or cells: human liver microsomes (pooled in the time-dependent assay)
Description: as §1

CYP2B6 = target: T3, CYP2B6 (Homo sapiens, UniProt P20813); assay: as above; type: in vitro ADME; settings: for activity at 3 µM / activity at 10 µM / activity at 50 µM: % of non-inhibited control, read-out: CYP2B6 T0 % activity; for IC50: estimated from 3, 10, 50 uM, read-out: CYP2B6 T0 estimated IC50
T3 construct: from tissue; host or cells: human liver microsomes (pooled in the time-dependent assay)
T3 sequence (P20813 1-491): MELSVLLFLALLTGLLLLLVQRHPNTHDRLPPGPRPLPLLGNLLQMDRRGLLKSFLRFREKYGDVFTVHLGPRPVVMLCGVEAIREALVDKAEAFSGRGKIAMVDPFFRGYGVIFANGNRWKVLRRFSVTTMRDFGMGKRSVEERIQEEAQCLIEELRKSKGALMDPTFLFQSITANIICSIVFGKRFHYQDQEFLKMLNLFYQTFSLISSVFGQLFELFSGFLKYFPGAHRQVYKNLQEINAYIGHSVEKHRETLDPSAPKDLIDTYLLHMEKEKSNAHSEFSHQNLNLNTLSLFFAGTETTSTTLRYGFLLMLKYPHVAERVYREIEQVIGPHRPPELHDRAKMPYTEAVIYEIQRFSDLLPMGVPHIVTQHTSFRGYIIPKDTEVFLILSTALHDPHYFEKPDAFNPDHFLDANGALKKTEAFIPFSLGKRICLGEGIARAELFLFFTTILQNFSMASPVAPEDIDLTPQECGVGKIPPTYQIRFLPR
Description: as §1

CYP2C19 = target: T4, CYP2C19 (Homo sapiens, UniProt P33261); assay: as above; type: in vitro ADME; settings: for activity at 3 µM / activity at 10 µM / activity at 50 µM: % of non-inhibited control, read-out: CYP2C19 T0 % activity; for IC50: estimated from 3, 10, 50 uM, read-out: CYP2C19 T0 estimated IC50
T4 construct: from tissue; host or cells: human liver microsomes (pooled in the time-dependent assay)
Description: as §1

CYP3A4 = target: T5, CYP3A4 (Homo sapiens, UniProt P08684); assay: direct inhibition of CYP450 in human liver microsomes (midazolam and testosterone probes); type: in vitro ADME
T5 construct: from tissue; host or cells: human liver microsomes (pooled in the time-dependent assay)
Description: as §1

[1] = target: T6, endogenous CD38 in HL60 cells (Homo sapiens, UniProt P28907); assay: cellular CD38 assay in HL60 cells (cellular NAD levels); type: cell-based; settings: all-trans retinoic acid, 24 hours, read-out: hCD38 HL60 ATRA NAD Cell Diaphorase IC50
T6 construct: endogenous in cells; host or cells: HL60 (leukemic cells, treated with all-trans retinoic acid)
T6 sequence (P28907 1-300): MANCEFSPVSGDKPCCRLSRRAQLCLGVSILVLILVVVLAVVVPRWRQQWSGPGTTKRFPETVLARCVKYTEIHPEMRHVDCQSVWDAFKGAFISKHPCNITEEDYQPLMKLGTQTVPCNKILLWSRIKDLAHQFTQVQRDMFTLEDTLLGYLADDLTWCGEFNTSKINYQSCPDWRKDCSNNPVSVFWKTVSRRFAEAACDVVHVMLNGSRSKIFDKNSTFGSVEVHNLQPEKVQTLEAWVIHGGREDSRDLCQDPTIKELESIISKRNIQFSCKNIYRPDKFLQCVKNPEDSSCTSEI
How it was run: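 Endogenous CD38 inhibition is inferred from NAD levels in HL60 cells after 24 h compound exposure at 20000 cells per well. A lytic cycling readout (0.2 U/mL diaphorase, 0.8 U/mL alcohol dehydrogenase, resazurin, FMN, ethanol, 0.2% Triton X-100, Tris/EDTA pH 8.4) ran 60 min at ambient temperature. Resorufin fluorescence was read at 540/590 nm.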

[2] = midazolam probe, read-out: CYP3A4-M T0 % activity
[3] = testosterone probe, read-out: CYP3A4-T T0 % activity
[4] = midazolam probe, read-out: CYP3A4-M T0 estimated IC50
[5] = testosterone probe, read-out: CYP3A4-T T0 estimated IC50
[6] = 3 uM, human liver microsomes, % of non-inhibited control, read-out: CYP1A2 T0 % activity
[7] = 10 uM, human liver microsomes, % of non-inhibited control, read-out: CYP1A2 T0 % activity
[8] = 50 uM, human liver microsomes, % of non-inhibited control, read-out: CYP1A2 T0 % activity
[9] = human liver microsomes, estimated from 3, 10, 50 uM, read-out: CYP1A2 T0 estimated IC50

T2 sequence (P11712 whole entry): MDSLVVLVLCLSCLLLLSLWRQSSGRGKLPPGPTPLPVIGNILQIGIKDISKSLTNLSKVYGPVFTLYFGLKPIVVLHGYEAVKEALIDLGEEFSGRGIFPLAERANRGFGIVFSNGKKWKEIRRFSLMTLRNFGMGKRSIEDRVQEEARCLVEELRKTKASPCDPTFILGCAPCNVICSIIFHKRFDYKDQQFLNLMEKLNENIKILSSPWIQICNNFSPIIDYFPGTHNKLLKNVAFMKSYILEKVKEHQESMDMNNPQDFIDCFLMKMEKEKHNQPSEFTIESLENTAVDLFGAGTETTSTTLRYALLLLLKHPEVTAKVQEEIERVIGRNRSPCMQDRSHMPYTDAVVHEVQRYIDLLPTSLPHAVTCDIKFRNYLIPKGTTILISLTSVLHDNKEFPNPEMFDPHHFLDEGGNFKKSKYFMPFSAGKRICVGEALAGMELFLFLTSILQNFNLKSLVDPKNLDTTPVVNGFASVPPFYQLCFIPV
T5 sequence (P08684 whole entry): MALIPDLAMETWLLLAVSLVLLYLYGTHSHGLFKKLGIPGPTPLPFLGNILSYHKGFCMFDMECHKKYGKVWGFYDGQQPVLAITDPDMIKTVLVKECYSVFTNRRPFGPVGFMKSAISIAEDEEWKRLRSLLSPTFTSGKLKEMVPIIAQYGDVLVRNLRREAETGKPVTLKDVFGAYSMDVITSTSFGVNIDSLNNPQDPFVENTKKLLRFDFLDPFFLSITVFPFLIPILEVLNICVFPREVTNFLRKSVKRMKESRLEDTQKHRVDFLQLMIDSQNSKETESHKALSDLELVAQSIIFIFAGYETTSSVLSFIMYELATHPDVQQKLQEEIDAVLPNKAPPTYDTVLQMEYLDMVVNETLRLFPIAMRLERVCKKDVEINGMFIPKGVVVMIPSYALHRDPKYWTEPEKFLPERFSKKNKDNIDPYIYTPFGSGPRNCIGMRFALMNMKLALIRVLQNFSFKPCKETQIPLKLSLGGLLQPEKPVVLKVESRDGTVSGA
T4 sequence (P33261 whole entry): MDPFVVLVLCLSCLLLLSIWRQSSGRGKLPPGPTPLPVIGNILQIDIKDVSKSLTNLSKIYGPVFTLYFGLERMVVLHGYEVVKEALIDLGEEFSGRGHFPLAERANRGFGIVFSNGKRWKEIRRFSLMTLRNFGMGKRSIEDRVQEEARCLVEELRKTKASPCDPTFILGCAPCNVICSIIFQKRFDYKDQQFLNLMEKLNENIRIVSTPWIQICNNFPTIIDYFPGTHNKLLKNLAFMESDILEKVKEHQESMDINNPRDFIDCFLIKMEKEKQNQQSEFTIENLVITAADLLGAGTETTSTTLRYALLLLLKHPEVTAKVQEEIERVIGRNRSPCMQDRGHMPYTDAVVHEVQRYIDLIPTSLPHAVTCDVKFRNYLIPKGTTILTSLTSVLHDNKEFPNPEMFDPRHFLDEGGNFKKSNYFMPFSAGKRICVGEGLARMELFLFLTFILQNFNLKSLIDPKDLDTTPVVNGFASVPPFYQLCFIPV

Row | SMILES | activity at 3 µM (CYP2C9) | activity at 10 µM (CYP2C9) | activity at 50 µM (CYP2C9) | IC50 (CYP2C9) | activity at 3 µM (CYP2B6) | activity at 10 µM (CYP2B6) | activity at 50 µM (CYP2B6) | IC50 (CYP2B6) | activity at 3 µM (CYP2C19) | activity at 10 µM (CYP2C19) | activity at 50 µM (CYP2C19) | IC50 (CYP2C19) | activity at 3 µM (CYP3A4; [2]) | activity at 3 µM (CYP3A4; [3]) | activity at 10 µM (CYP3A4; [2]) | activity at 10 µM (CYP3A4; [3]) | activity at 50 µM (CYP3A4; [2]) | activity at 50 µM (CYP3A4; [3]) | IC50 (CYP3A4; [4]) | IC50 [1] | also measured
1 | CC(C)(O)c1ccc(NC(=O)c2nccc(-n3ccnc3)n2)cn1 [Compound 249, N-(6-(2-hydroxypropan-2-yl)pyridin-3-yl)-4-(1H-imidazol-1-yl)pyrimidine-2-carboxamide] | 106% | 103% | 92% | > 50 µM | 98% | 98% | 92% | > 50 µM | 95% | 96% | 74% | > 50 µM | 108% | 99% | 103% | 100% | 100% | 92% | > 50 µM | 0.838 µM | IC50 (CYP1A2): > 50 µM; activity at 3 µM (CYP1A2; human, microsomes): 99%; activity at 10 µM (CYP1A2; human, microsomes): 93%; activity at 50 µM (CYP1A2; human, microsomes): 81%; IC50 (CYP3A4; [5]): > 50 µM
2 | Cn1cncc1-c1ccnc(C(=O)Nc2ccc(C(C)(C)O)nc2)n1 [Compound 250, N-(6-(2-hydroxypropan-2-yl)pyridin-3-yl)-4-(1-methyl-1H-imidazol-5-yl)pyrimidine-2-carboxamide] | 99% | 94% | 89% | > 50 µM | 101% | 99% | 89% | > 50 µM | 88% | 88% | 66% | > 50 µM | 96% | 104% | 89% | 106% | 73% | 85% | > 50 µM | 0.924 µM | IC50 (CYP1A2): < 50 µM; activity at 3 µM (CYP1A2; human, microsomes): 88%; activity at 10 µM (CYP1A2; human, microsomes): 69%; activity at 50 µM (CYP1A2; human, microsomes): 34%; IC50 (CYP3A4; [5]): > 50 µM
3 | CO[C@H]1CC[C@H](NC(=O)c2cc(C3(C)COC3)nc(-c3cncn3C)n2)CC1 [Compound 295, N-((1r,4r)-4-methoxycyclohexyl)-2-(1-methyl-1H-imidazol-5-yl)-6-(3-methyloxetan-3-yl)pyrimidine-4-carboxamide] | 91% | 85% | 63% | > 50 µM | 96% | 91% | 79% | > 50 µM | 108% | 100% | 79% | > 50 µM | 92% | 103% | 93% | 106% | 101% | 86% | > 50 µM | 2.31 µM | activity at 3 µM (CYP1A2; [6]): 101%; activity at 10 µM (CYP1A2; [7]): 98%; activity at 50 µM (CYP1A2; [8]): 97%; IC50 (CYP1A2; [9]): > 50 µM; IC50 (CYP3A4; [5]): > 50 µM

More lines, main results first:

Row | activity at 3 µM (CYP2C9) | activity at 10 µM (CYP2C9) | activity at 50 µM (CYP2C9) | IC50 (CYP2C9) | activity at 3 µM (CYP2B6) | activity at 10 µM (CYP2B6) | activity at 50 µM (CYP2B6) | IC50 (CYP2B6) | activity at 3 µM (CYP2C19) | activity at 10 µM (CYP2C19) | activity at 50 µM (CYP2C19) | IC50 (CYP2C19) | activity at 3 µM (CYP3A4; [2]) | activity at 3 µM (CYP3A4; [3]) | activity at 10 µM (CYP3A4; [2]) | activity at 10 µM (CYP3A4; [3]) | activity at 50 µM (CYP3A4; [2]) | activity at 50 µM (CYP3A4; [3]) | IC50 (CYP3A4; [4]) | IC50 [1] | SMILES | also measured
4 | – | – | – | – | – | – | – | – | – | – | – | – | – | – | – | – | – | – | – | 1.89 µM | CO[C@H]1CC[C@H](NC(=O)c2nccc(-c3cncn3C)n2)CC1 [Compound 148, N-((1r,4r)-4-methoxycyclohexyl)-4-(1-methyl-1H-imidazol-5-yl)pyrimidine-2-carboxamide] | –
5 | 101% | 96% | 69% | > 50 µM | 95% | 80% | 53% | > 50 µM | 92% | 85% | 39% | < 50 µM | 93% | 98% | 92% | 96% | 79% | 79% | > 50 µM | 2.63 µM | CO[C@H]1CC[C@H](NC(=O)c2cc(C3CCOCC3)nc(-c3cncn3C)n2)CC1 [Compound 199, N-((1r,4r)-4-methoxycyclohexyl)-2-(1-methyl-1H-imidazol-5-yl)-6-(tetrahydro-2H-pyran-4-yl)pyrimidine-4-carboxamide] | activity at 3 µM (CYP1A2; [6]): 96%; activity at 10 µM (CYP1A2; [7]): 96%; activity at 50 µM (CYP1A2; [8]): 85%; IC50 (CYP1A2; [9]): > 50 µM; IC50 (CYP3A4; [5]): > 50 µM
6 | 90% | 94% | 86% | > 50 µM | 103% | 101% | 91% | > 50 µM | 97% | 96% | 88% | > 50 µM | 88% | 96% | 97% | 99% | 82% | 95% | > 50 µM | 3.61 µM | Cn1cncc1-c1ccnc(C(=O)N[C@H]2CC[C@H](O)CC2)n1 [Compound 256, N-((1r,4r)-4-hydroxycyclohexyl)-4-(1-methyl-1H-imidazol-5-yl)pyrimidine-2-carboxamide] | activity at 3 µM (CYP1A2; [6]): 94%; activity at 10 µM (CYP1A2; [7]): 92%; activity at 50 µM (CYP1A2; [8]): 78%; IC50 (CYP1A2; [9]): > 50 µM; IC50 (CYP3A4; [5]): > 50 µM
